# Measurements: patent publication US12546707B2, “Validation of natural matrices for therapeutic use” (priority 2024, dated 2026)
# System: primary human chondrocytes (HC) exposed to IL1B
# Test: In vitro cell assay representative of osteoarthritis (transcriptomics, IPA Z-score of biological functions)
# Assay type: cell-based
# Settings: chondrocytes with IL1B 5 ng/ml, vs pathological state control
# Description: Each time one of the batch solutions was added, fresh IL1B [5 ng/ml] was also added to the medium. The time schedule used for experimental setting is as follows: [table] At the end of described treatment periods, cells were washed with 100 μl PBS and lysed and collected in RLT buffer (Qiagen, 1053393) added with β-mercaptoethanol (Sigma, M3148) and DX reagent (Qiagen, 19088) for gene expression analysis experiments. Total RNA was extracted from cells lysates using an QIAsymphony RNA Kit (Qiagen,) with the QIAsymphony SP instrument (Qiagen). The quality and quantity of RNA was determined by A230, A260, A280 and A320 measurements on VarioskanTM LUX multimode microplate reader (Thermo ScientificTM). Integrity of RNA was checked using a 2100 expert_Eukaryote Total RNA Nano Kit (Agilent). Whole transcriptome expression profile was evaluated using a Human ClariomTM S Pico Assay HT (Applied Biosystems, ThermoFisher Scientific) on a GeneTitan MC Instrument (Applied Biosystems, ThermoFisher Scientific), following the manufacturer's instructions. […] Arrays were washed, stained and then scanned using the GeneTitan MC Instrument (Applied Biosystems, ThermoFisher Scientific) and CEL Intensity files were generated by Affymetrix GeneChip Command Console Software (AGCC, ThermoFisher Scientific). […] Ingenuity Pathways Analysis (IPA) (QIAGEN \Inc., https://www.qiagenbioinformatics.com/products/ingenuitypathway-analysis) was used, for each investigated batch to evaluate modulations of gene expression relevant for effects of interest. The patho-physiological features of state-of-the-art “Osteoarthritis condition” were considered with particular attention to the following areas involved: [table] This knowledge was used to interrogate IPA via the “IPA Bioprofiler” tool, using the following key words: osteoarthritis, arthropathy, formation of cartilage tissue, destruction of cartilage tissue, damage of cartilage, connective tissue disorder, inflammation of joint, immune cell trafficking, oxidative stress and hyaluronic acid. The use of “IPA Bioprofiler” allowed to identify clusters of expressed genes causally linked to each of the identified biological functions and the specific molecular pathway underpinning them. […] Modulation of expressed genes were shown in different intensities of blue (signifying down-modulation) or red (signifying up-modulation). The resulting expected calculated impact, based on the literature, on the related biofunctions was determined by “IPA Molecule Activity Predictor” tool (MAP) and resumed in a heatmap visualization. The colour and intensity thereof were transformed into numerical values.
# [1] = hallmark Protection from anatomical damage
smiles,measurement,setting,value
"CC1(C)O[C@@H]2C[C@H]3[C@@H]4CCC5=CC(=O)C=C[C@]5(C)[C@@]4(F)[C@@H](O)C[C@]3(C)[C@]2(C(=O)CO)O1 [Triamcinolone acetonide, Triamcinolone Acetonide]",Z-score values: Skeletal and muscular system development and function → articular dysfunction → joint space → Formation of cartilage tissue,hallmark Induction of proliferation,−0.31
same,"Z-score values: Organismal injury and abnormalities → joint inflammation and swelling, difficulty moving a joint → Osteoarthritis",[1],−0.15
same,Z-score values: Skeletal and muscular system function → difficulty moving a joint → Non-traumatic arthropathy,[1],−0.17
same,Z-score values: Inflammatory disease → inflammation and nociceptions → Inflammation of joint,hallmark Reduction of inflammation,−0.26
